One may read the pIC50 as the IC50 on a negative log10 scale, so that one unit is a factor of ten. What is called inhibition is the drop in the measured response relative to a control, in per cent.

This is an account of results in patent publication US9714247B2, “Multiple kinase pathway inhibitors” (Mannkind Corporation, priority 2012, dated 2017).

pEC50, pIC50: −log10 of the molar value. Where two headings read alike, the source gives them in different places.

Test [1] relates to PC3. Kind of test: Proliferation/viability assay. In kind it is cell-based. The settings on record: Table 10, Prostate Ca, read-out: Effect on Tumor Cell Growth EC50, PC3.
Test [2] relates to DoHH2. Kind of test: CellTiter-Glo proliferation/viability assay. It is filed as cell-based, human.
Test [3] relates to Ramos. As to conditions: cited from earlier work.
For test [4], the system named is Ramos. As to the kind of experiment: CellTiter-Glo proliferation/viability assay. In kind it is cell-based, human. Background: Cellular ATP, detected with luciferase, serves as a proxy for viable cell number.
For another test, the system named is SuDHL6. Kind of test: Proliferation/viability assay. It is filed as cell-based. As to conditions: Table 10, B Lymphoma, read-out: Effect on Tumor Cell Growth EC50, SuDHL6.
The target of test [5] is T1, Lyn (Homo sapiens (Human), UniProt P07948). As to the kind of experiment: biochemical.
T1 sequence (P07948 whole entry): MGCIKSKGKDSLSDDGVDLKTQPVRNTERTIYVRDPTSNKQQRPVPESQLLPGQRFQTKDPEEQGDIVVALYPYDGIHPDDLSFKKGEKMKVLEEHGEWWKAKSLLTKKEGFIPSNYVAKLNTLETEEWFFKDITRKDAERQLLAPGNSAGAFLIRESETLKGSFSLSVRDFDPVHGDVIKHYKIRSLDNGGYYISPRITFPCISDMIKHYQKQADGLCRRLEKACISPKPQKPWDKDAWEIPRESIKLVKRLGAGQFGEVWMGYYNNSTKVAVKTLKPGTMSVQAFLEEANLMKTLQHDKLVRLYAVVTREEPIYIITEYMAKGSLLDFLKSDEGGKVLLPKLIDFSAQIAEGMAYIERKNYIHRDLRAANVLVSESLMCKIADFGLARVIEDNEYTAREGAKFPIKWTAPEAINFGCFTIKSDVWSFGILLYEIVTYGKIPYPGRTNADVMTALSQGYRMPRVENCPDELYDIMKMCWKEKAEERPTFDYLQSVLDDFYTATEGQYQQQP
Test [6] deals with T2, Src (Homo sapiens (Human), UniProt P12931). Kind of test: biochemical.
T2 sequence (P12931 whole entry, looked up, the tested form may be a part): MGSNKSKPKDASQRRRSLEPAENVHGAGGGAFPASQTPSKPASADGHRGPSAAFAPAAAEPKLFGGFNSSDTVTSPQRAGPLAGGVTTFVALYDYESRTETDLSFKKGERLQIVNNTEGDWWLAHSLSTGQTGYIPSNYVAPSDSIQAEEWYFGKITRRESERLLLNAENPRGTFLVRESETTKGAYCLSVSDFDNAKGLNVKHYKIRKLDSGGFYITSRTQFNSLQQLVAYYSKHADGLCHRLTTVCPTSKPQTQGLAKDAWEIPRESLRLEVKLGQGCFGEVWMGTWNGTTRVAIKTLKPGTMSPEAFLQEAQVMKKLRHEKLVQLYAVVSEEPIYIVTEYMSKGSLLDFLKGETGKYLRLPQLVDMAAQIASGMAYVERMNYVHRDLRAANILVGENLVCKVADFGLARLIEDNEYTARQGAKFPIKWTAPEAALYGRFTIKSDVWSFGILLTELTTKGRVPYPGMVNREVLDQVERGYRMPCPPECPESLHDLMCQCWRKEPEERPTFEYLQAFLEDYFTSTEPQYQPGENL
Test [7] deals with PLCγ2 phosphorylation in Ramos cells. As to the kind of experiment: PLCγ2 phosphorylation by Western blotting. It is filed as cell-based, human. The settings on record: anti-IgM/H2O2 stimulation, Tyr1217. How it is done: Ramos cells were cultured in RPMI 1640 media with 10% FBS and were starved overnight (18 h) in 1% FBS containing media and on the next day pretreated with inhibitor for 2 h before stimulation. Cells were stimulated to induce BTK network dependent signal transduction pathways using mouse anti-human IgM (final concentration 10 ug/ml; Invitrogen) antibodies and 3.3 mM H2O2 mixture for 2 minutes followed by F(Ab) fragment that cross-linked the anti-IgM antibody (final concentration 10 ug/ml), and 3.3 mM H2O2 for 8 minutes. Cell lysates were prepared in lysis buffer containing protease and phosphatase inhibitors, quantified using the BCA protein assay kit (Pierce) and used for Western blotting. Antibodies specifically targeted to the molecules of interest, PLCγ2 phosphorylated at Tyr1217 and total PLCγ2, (Cell Signaling Technology) were used in a standard Western blotting procedure.
Phosphorylation of PLCγ2 at Tyr1217 along with Tyr753, Tyr759 and Tyr1197 is correlated with increased PLCγ2 activity. The readout for BTK network signaling was inhibition of phosphorylation of PLCγ2 induced by the anti-IgM treatment.
A general note: A western blot detects proteins with antibodies after separation by electrophoresis.

For a further test, the system named is DoHH2 cells. The settings on record: treated 24 hours.
The subject of test [8] is phosphorylation of SFKs in Ramos cells. As to the kind of experiment: SFK phosphorylation (Tyr 416) by Western blotting. In kind it is cell-based, human. The settings on record: pretreated 2 hours. As to the method:
Ramos cell lysates from stimulated and unstimulated cells were analyzed for the levels of phosphorylated SRC family members. As described in Example 82 (above), cells were pretreated for 2 hours with an amino naphthyridinones and then stimulated with anti-IgM antibody and H2O2, protein lysates were prepared, quantified and used for Western blotting. A commercially available antibody that detects Src phosphorylated at Tyr 416 (Cell Signalling) and may cross-react with other Src family members such as Lyn, Fyn, Lck, Yes and Hck when phosphorylated at equivalent sites was used for Western blot analysis. The molecular weights of SFK family members are quite similar (in the 55-60 kDa range) and different family members cannot be resolved by the conditions used for the Western blot. […] The procedure can be similarly adapted for flow cytometric analysis as with the PLC-γ2 assay in Example 82. Ramos cells were incubated with Compound 1 for 2 hrs in RPMI media with 5% FBS prior to stimulation stimulated with H2O2/anti-IgM/F(Ab) for 10 minutes. Cells were evaluated by FACS analysis using anti-pSRC antibody and FITC-conjugated goat anti-rabbit secondary antibody following overnight storage at 4° C. in BD perm/wash buffer.

For another test, the target named is BTK (Homo sapiens (Human), UniProt Q06187).
Sequence of BTK (Q06187 whole entry): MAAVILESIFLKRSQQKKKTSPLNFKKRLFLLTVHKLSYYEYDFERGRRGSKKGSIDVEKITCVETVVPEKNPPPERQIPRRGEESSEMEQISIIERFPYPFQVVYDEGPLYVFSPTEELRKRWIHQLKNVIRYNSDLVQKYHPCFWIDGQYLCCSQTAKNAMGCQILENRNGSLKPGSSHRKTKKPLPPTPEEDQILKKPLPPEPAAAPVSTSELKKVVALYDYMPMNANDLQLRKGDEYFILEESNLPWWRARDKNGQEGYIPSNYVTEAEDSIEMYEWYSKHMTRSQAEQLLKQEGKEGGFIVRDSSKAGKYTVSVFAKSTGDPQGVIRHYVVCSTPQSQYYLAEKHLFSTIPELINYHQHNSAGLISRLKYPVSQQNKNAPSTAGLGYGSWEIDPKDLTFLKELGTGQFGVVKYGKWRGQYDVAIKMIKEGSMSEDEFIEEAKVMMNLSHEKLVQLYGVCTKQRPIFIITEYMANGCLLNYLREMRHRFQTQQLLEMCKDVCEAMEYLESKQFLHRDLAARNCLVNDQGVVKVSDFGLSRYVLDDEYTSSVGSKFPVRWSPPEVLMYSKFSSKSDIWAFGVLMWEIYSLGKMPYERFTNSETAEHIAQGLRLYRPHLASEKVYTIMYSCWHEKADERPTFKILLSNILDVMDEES
Test [9] addresses T1, Lyn. As to conditions: read-out: Lyn IC50.
In test [10] the test system is PLCγ2 phosphorylation in Ramos cells. As to the kind of experiment: PLCγ2 phosphorylation by flow cytometry. In kind it is cell-based, human. The settings on record: Homo sapiens, flow cytometry; for inhibition at 0.3 µM: anti-phospho PLCγ2 (Tyr759), read-out: pPLCγ % inhibition. Put shortly: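 Ramos cells starved 18 h in 1% FBS, pretreated with inhibitor 2 h, then stimulated with anti-IgM (10 ug/ml final) plus 3.3 mM H2O2 for 2 min, then cross-linking F(ab) (10 ug/ml) plus H2O2 for 8 min. Fixed, permeabilized cells stained with PE anti-phospho-PLCγ2 (Tyr1217 or Tyr759), dead cells gated out; ED50 from geometric mean fluorescence over four inhibitor concentrations.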
Background: A flow cytometer gives signals particle by particle.

Test [11] concerns phosphorylation of SFKs in Ramos cells. Kind of test: SFK phosphorylation (Tyr 416) by flow cytometry. In kind it is cell-based, human. The settings on record: Homo sapiens, 0.3 uM, flow cytometry, SFK phosphorylated at Tyr 416, read-out: pSRC % inhibition. Put shortly: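 Ramos cells pretreated with compound 2 hrs in RPMI with 5% FBS, then stimulated 10 minutes with H2O2/anti-IgM. Phospho-Tyr 416 SFK detected by flow cytometry with an antibody that may cross-react across Src family members, plus fluorescent secondary antibody.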

Another test deals with RBL-2H3 cells. As to the kind of experiment: Degranulation (β-hexosaminidase release) colorimetric assay. In kind it is cell-based. The settings on record: Rattus norvegicus, RBL-2H3, IgE / DNP-BSA. The source says: Crosslinking of IgE receptors leads to induction of intracellular signal transduction pathways and degranulation of mast cells and basophils leading to the release of histamine, serotonin and cytokines that constitutes an allergic reaction. […] One of the factors secreted on induction of degranulation is β-hexosaminidase. A colorimetric assay using 4-nitrophenyl N-acetyl-3-D-glucosaminide (Sigma-Aldrich) as a substrate was used to estimate the amount of enzyme secreted upon degranulation. In brief, RBL-2H3 (ATCC # CRL 2256) cells were plated overnight in the presence of IgE (monoclonal anti-dinitrophenyl antibody from Sigma-Aldrich). The next day, cells were treated with compounds in cell culture media, washed and treated with DNP-BSA for 1 hour (Sigma-Aldrich) in Tyrodes's buffer to induce degranulation. The level of 3-hexosaminidase was analyzed in cell-free supernates and cell lysates and the amount of β-hexosaminidase released was calculated. EC50 values were generated using varying concentrations of inhibitors. […] Thus amino naphthyridinones can be used to inhibit immunologic functions such as degranulation.

In test [12] the target is T2, Src. The settings on record: read-out: Src IC50.
Test [13] concerns DoHH2. As to conditions: cited from earlier work.
The test system of test [14] is DoHH2. As to the kind of experiment: Apoptosis by flow cytometry (Annexin V / 7AAD). It is filed as cell-based, human. The settings on record: Table 5; positive control, concentration not given. The source says: Activation of Tec family kinases including BTK, and/or Src kinase family members, regulates cell survival and cell death in normal B cells, lymphomas, and solid tumors. Apoptosis is a programmed cell death characterized by specific changes in cell morphology. […] Staurosporine was used as a positive control for apoptosis. […] Table 6 illustrates that several amino naphthyridinones induce significant apoptosis in DoHH2 cells.

The subject of test [15] is Ramos. As to the kind of experiment: Apoptosis by flow cytometry (Annexin V / 7AAD). It is filed as cell-based, human. As to conditions: Table 5; positive control, concentration not given.
For test [16], the system named is PC3. As to the kind of experiment: Apoptosis by flow cytometry (Annexin V / 7AAD). It is filed as cell-based. The settings on record: Table 5; positive control, concentration not given.
Where [17] appears, read: Homo sapiens, DOHH-2, 48 hrs, read-out: DoHH2 EC50.
Setting [18] is: Homo sapiens, Ramos, 48 hrs, read-out: Ramos EC50.

Consider `CN1CCN(CCOc2cc(OC3CCOCC3)c3c(Nc4c(Cl)ccc5c4OCO5)ncnc3c2)CC1` [AZN0530], for which the pEC50 in the test on PC3 [1] was less than 5.00; in the test on DoHH2 [2] (Table 10, B Lymphoma, read-out: Effect on Tumor Cell Growth EC50, DOHH2), 5.62; with Ramos [4] (Table 10, B Lymphoma, read-out: Effect on Tumor Cell Growth EC50, Ramos), less than 5.00; with SuDHL6, 5.60. For the same molecule, the “Resistance of Ramos to known kinase inhibitors” value in the test on Ramos [3] is reported as “resistant”.

Consider `CCN(CC)CCOc1ccc(Nc2cc3c(cn2)cc(-c2ccccc2)c(=O)n3C2CCOCC2)nc1` [Compound 70, 7-(5-(2-(diethylamino)ethoxy)pyridin-2-ylamino)-3-phenyl-1-(tetrahydro-2H-pyran-4-yl)-1,6-naphthyridin-2(1H)-one], for which the pEC50 was greater than 6.00 in the test on DoHH2 [2] (setting [17]); greater than 6.00 in the test with DoHH2 [2] (Homo sapiens, DOHH-2, Table 4, DoHH2 cells, read-out: EC50 (Proliferation)); less than 5.00 with Ramos [4] (setting [18]); 6.48 in test [10] (anti-phospho PLCγ2 (Tyr1217), four concentrations, read-out: Inhibition of phosphorylation of PLC-γ2 EC50). Further, the pIC50 against Lyn [5], against Src [6], on BTK, on BTK (read-out: BTK IC50) and at Lyn [9] was 6.00 to 7.00 in each case. For the same molecule, the “Inhibition of PLCγ2 phosphorylation (Western blot)” value in test [7] is reported as “observed this inhibition”. The “Effect on Cell Cycle” value in the test on DoHH2 cells is “G1 Arrest”. The “Inhibition of phosphorylation of SFKs (Western blot)” value in test [8] is listed as “dose-dependent decrease of phosphorylation of SFKs”.

On to `CCn1c(=O)c(-c2c(O)cccc2F)cc2cnc(Nc3ccc(N(C)C4CCN(C)CC4)cn3)cc21` [Compound 120, 1-ethyl-3-(2-fluoro-6-hydroxyphenyl)-7-((5-(methyl(1-methylpiperidin-4-yl)amino)pyridin-2-yl)amino)-1,6-naphthyridin-2(1H)-one], for which the inhibition at 0.3 µM stood at 57% in test [11] and 87% in [10]. Also, the values for the pEC50 in the test with DoHH2 [2] (setting [17]), in the test with RBL-2H3 cells and in the test with Ramos [4] (setting [18]) were greater than 6.00, 5.65 and 5.00 to 6.00, respectively. In addition, the pIC50 at BTK (read-out: BTK IC50), on Lyn [9] and on Src [12] was greater than 7.00 each time.

Take `COCCn1c(=O)c(-c2c(F)cccc2F)cc2cnc(Nc3ccc(N(C)C4CCN(C)CC4)cn3)cc21` [Compound 129, 3-(2,6-difluorophenyl)-1-(2-methoxyethyl)-7-((5-(methyl(1-methylpiperidin-4-yl)amino)pyridin-2-yl)amino)-1,6-naphthyridin-2(1H)-one]: the inhibition at 0.3 µM was found to be 66% in test [11] and 88% in test [10]. For the same molecule, the figures for the pEC50 in the test on DoHH2 [2] (setting [17]), with RBL-2H3 cells and in the test on Ramos [4] (setting [18]) were greater than 6.00, less than 5.30 and 5.00 to 6.00, respectively. Moreover, the pIC50 on BTK (read-out: BTK IC50), at Lyn [9] and at Src [12] was greater than 7.00 in each case.

Turning to `CN1CCN(CCn2c(=O)c(-c3c(F)cccc3F)cc3cnc(Nc4ccc(F)cn4)cc32)CC1` [Compound 134, 3-(2,6-difluorophenyl)-7-((5-fluoropyridin-2-yl)amino)-1-(2-(4-methylpiperazin-1-yl)ethyl)-1,6-naphthyridin-2(1H)-one], the inhibition at 0.3 µM is 44% in [11] and 80% in test [10]. The pEC50 in the test on DoHH2 [2] (setting [17]) was greater than 6.00; in the test with RBL-2H3 cells, 5.51; with Ramos [4] (setting [18]), 5.00 to 6.00. In addition, the pIC50 at BTK (read-out: BTK IC50), at Lyn [9] and at Src [12] was greater than 7.00 in each case.

Turning to `CC(C)n1c(=O)c(-c2c(F)cccc2F)cc2cnc(Nc3ccc(N(C)C4CCN(C)CC4)cn3)cc21` [Compound 137, 3-(2,6-difluorophenyl)-1-isopropyl-7-((5-(methyl(1-methylpiperidin-4-yl)amino)pyridin-2-yl)amino)-1,6-naphthyridin-2(1H)-one], the results for the inhibition at 0.3 µM in [11] and in test [10] were 81% and 98%, respectively. For the same molecule, the pEC50 with DoHH2 [2] (setting [17]) was greater than 6.00; in the test with RBL-2H3 cells, 5.94; in the test with Ramos [4] (Homo sapiens, Ramos, 48 h, read-out: Ramos EC50) it was 5.00 to 6.00. The pIC50 on BTK (read-out: BTK IC50), at Lyn [9] and at Src [12] was greater than 7.00 throughout.

With `Cc1ccc(NC(=O)c2ccc(CN3CC[C@H](N(C)C)C3)c(C(F)(F)F)c2)cc1Nc1nccc(-c2cncnc2)n1` [Inno-406], the pEC50 in the test on PC3 [1] (Homo sapiens, PC-3) is less than 5.00; with DoHH2 [2] (Homo sapiens, DOHH-2, Table 10, B Lymphoma, read-out: Effect on Tumor Cell Growth EC50, DOHH2) it was 5.16; in the test on Ramos [4] (Homo sapiens, Ramos, Table 10, B Lymphoma, read-out: Effect on Tumor Cell Growth EC50, Ramos), 5.14; in the test with SuDHL6 (Homo sapiens, SU-DHL-6), 5.24. Further, the “Resistance of Ramos to known kinase inhibitors” value with Ramos [3] is recorded as “resistant”.

Turning to `Cc1nc(Nc2ncc(C(=O)Nc3c(C)cccc3Cl)s2)cc(N2CCN(CCO)CC2)n1` [dasatinib], the “Resistance of Ramos to known kinase inhibitors” value with Ramos [3] is given as “resistant”. In addition, the “Response of DoHH2 to known drugs” value in the test with DoHH2 [13] is “responds”.

For `CN[C@@H]1C[C@H]2O[C@@](C)([C@@H]1OC)n1c3ccccc3c3c4c(c5c6ccccc6n2c5c31)C(=O)NC4` [staurosporine, Staurosporine, reference compound], the “Percent Apoptosis DOHH2” value with DoHH2 [14] is 95.86%. Moreover, in the test with Ramos [15], the “Percent Apoptosis Ramos” value is 73.74%. Besides, the “Percent Apoptosis PC3” value with PC3 [16] is listed as 47.16%.
